Reference: PubChem BioAssay (NCI)
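In this assay, cells in 96-well plates receive the compound at five concentrations for 48 hours. Endpoints are linearly interpolated between the surrounding concentrations. GI50 = concentration required for 50% inhibition of growth. The concentration for full growth arrest is given as TGI.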

Legend:
Experiment in all cases: NCI anticancer screen, dose series, 48 h
ACHN renal = tested on: ACHN renal
UACC-62 melanoma = tested on: UACC-62 melanoma
HS 578T breast = tested on: HS 578T breast
IGROV1 ovarian = tested on: IGROV1 ovarian
T-47D breast = tested on: T-47D breast
EKVX NSCLC = tested on: EKVX NSCLC
K-562 leukemia = tested on: K-562 leukemia
SF-539 CNS = tested on: SF-539 CNS
A549 NSCLC = tested on: A549 NSCLC
MCF7 breast = tested on: MCF7 breast
MDA-MB-435 = tested on: MDA-MB-435
HL-60(TB) leukemia = tested on: HL-60(TB) leukemia
M14 melanoma = tested on: M14 melanoma
SF-268 CNS = tested on: SF-268 CNS
SF-295 CNS = tested on: SF-295 CNS
SK-MEL-5 melanoma = tested on: SK-MEL-5 melanoma
LOX IMVI melanoma = tested on: LOX IMVI melanoma
NCI-H522 lung = tested on: NCI-H522 lung
SNB-75 CNS = tested on: SNB-75 CNS
SW-620 colon = tested on: SW-620 colon
HCC-2998 colon = tested on: HCC-2998 colon
SK-MEL-28 melanoma = tested on: SK-MEL-28 melanoma
SN12C renal = tested on: SN12C renal
RXF 393 renal = tested on: RXF 393 renal
CCRF-CEM leukemia = tested on: CCRF-CEM leukemia
OVCAR-4 ovarian = tested on: OVCAR-4 ovarian
COLO 205 colon = tested on: COLO 205 colon
MOLT-4 leukemia = tested on: MOLT-4 leukemia
OVCAR-8 ovarian = tested on: OVCAR-8 ovarian
UACC-257 melanoma = tested on: UACC-257 melanoma
BT-549 breast = tested on: BT-549 breast
NCI-H226 lung = tested on: NCI-H226 lung
NCI-H460 lung = tested on: NCI-H460 lung
SNB-19 CNS = tested on: SNB-19 CNS
HCT-15 colon = tested on: HCT-15 colon
MDA-MB-231 breast = tested on: MDA-MB-231 breast
NCI/ADR-RES ovarian = tested on: NCI/ADR-RES ovarian
U251 CNS = tested on: U251 CNS
NCI-H23 lung = tested on: NCI-H23 lung
HOP-92 NSCLC = tested on: HOP-92 NSCLC
SK-OV-3 ovarian = tested on: SK-OV-3 ovarian
OVCAR-3 ovarian = tested on: OVCAR-3 ovarian
PC-3 prostate = tested on: PC-3 prostate
DU-145 prostate = tested on: DU-145 prostate
RPMI-8226 leukemia = tested on: RPMI-8226 leukemia
TK-10 renal = tested on: TK-10 renal
HCT-116 colon = tested on: HCT-116 colon
KM12 colon = tested on: KM12 colon
OVCAR-5 ovarian = tested on: OVCAR-5 ovarian
HOP-62 NSCLC = tested on: HOP-62 NSCLC
UO-31 renal = tested on: UO-31 renal
SK-MEL-2 melanoma = tested on: SK-MEL-2 melanoma
CAKI-1 renal = tested on: CAKI-1 renal
786-0 renal = tested on: 786-0 renal
A498 renal = tested on: A498 renal
HT29 colon = tested on: HT29 colon
MALME-3M melanoma = tested on: MALME-3M melanoma
SR leukemia = tested on: SR leukemia

Question: Which results are given for `COc1ccc(/C(COc2ccc3c(=O)c(-c4ccccc4)coc3c2)=N\O)cc1`?
Answer: GI50 (ACHN renal): 11.3 µM; TGI (ACHN renal): 34 µM; GI50 (UACC-62 melanoma): 0.662 µM; TGI (UACC-62 melanoma): 21.2 µM; GI50 (HS 578T breast): 3.79 µM; TGI (HS 578T breast): 44.6 µM; GI50 (IGROV1 ovarian): 7.37 µM; TGI (IGROV1 ovarian): 38.3 µM; GI50 (T-47D breast): 6.96 µM; TGI (T-47D breast): > 37.2 µM; GI50 (EKVX NSCLC): 4.94 µM; TGI (EKVX NSCLC): 38.7 µM; GI50 (K-562 leukemia): 0.0674 µM; TGI (K-562 leukemia): > 100 µM; GI50 (SF-539 CNS): 1.6 µM; TGI (SF-539 CNS): 5.32 µM; GI50 (A549 NSCLC): 14.8 µM; TGI (A549 NSCLC): > 83.6 µM; GI50 (MCF7 breast): 3.16 µM; TGI (MCF7 breast): > 50.9 µM; GI50 (MDA-MB-435): 2.17 µM; TGI (MDA-MB-435): 4.64 µM; GI50 (HL-60(TB) leukemia): 0.119 µM; TGI (HL-60(TB) leukemia): 2.2 µM; GI50 (M14 melanoma): 8.49 µM; TGI (M14 melanoma): 23.8 µM; GI50 (SF-268 CNS): 6.36 µM; TGI (SF-268 CNS): > 78.5 µM; GI50 (SF-295 CNS): 2.59 µM; TGI (SF-295 CNS): 25.5 µM; GI50 (SK-MEL-5 melanoma): 0.394 µM; TGI (SK-MEL-5 melanoma): 4.74 µM; GI50 (LOX IMVI melanoma): 4.73 µM; TGI (LOX IMVI melanoma): > 45.9 µM; GI50 (NCI-H522 lung): 4.65 µM; TGI (NCI-H522 lung): 20.6 µM; GI50 (SNB-75 CNS): 14.5 µM; TGI (SNB-75 CNS): > 70.9 µM; GI50 (SW-620 colon): 2.37 µM; TGI (SW-620 colon): 16.9 µM; GI50 (HCC-2998 colon): 3.09 µM; TGI (HCC-2998 colon): 9.15 µM; GI50 (SK-MEL-28 melanoma): 10.2 µM; TGI (SK-MEL-28 melanoma): > 90.9 µM; GI50 (SN12C renal): 1.65 µM; TGI (SN12C renal): 16.4 µM; GI50 (RXF 393 renal): 7.81 µM; TGI (RXF 393 renal): > 80.7 µM; GI50 (CCRF-CEM leukemia): 3.9 µM; TGI (CCRF-CEM leukemia): > 100 µM; GI50 (OVCAR-4 ovarian): 16.1 µM; TGI (OVCAR-4 ovarian): > 100 µM; GI50 (COLO 205 colon): 9.66 µM; TGI (COLO 205 colon): > 36.3 µM; GI50 (MOLT-4 leukemia): 1.08 µM; TGI (MOLT-4 leukemia): > 100 µM; GI50 (OVCAR-8 ovarian): 12.1 µM; TGI (OVCAR-8 ovarian): 64.3 µM; GI50 (UACC-257 melanoma): 17.9 µM; TGI (UACC-257 melanoma): > 60 µM; GI50 (BT-549 breast): 8.27 µM; TGI (BT-549 breast): 54.7 µM; GI50 (NCI-H226 lung): 15.2 µM; TGI (NCI-H226 lung): 89 µM; GI50 (NCI-H460 lung): 4 µM; TGI (NCI-H460 lung): 31.7 µM; GI50 (SNB-19 CNS): 14.9 µM; TGI (SNB-19 CNS): > 86.7 µM; GI50 (HCT-15 colon): 0.349 µM; TGI (HCT-15 colon): 12.9 µM; GI50 (MDA-MB-231 breast): 0.698 µM; TGI (MDA-MB-231 breast): 18.5 µM; GI50 (NCI/ADR-RES ovarian): 0.652 µM; TGI (NCI/ADR-RES ovarian): 35.5 µM; GI50 (U251 CNS): 1.1 µM; TGI (U251 CNS): > 39.6 µM; GI50 (NCI-H23 lung): 19.3 µM; TGI (NCI-H23 lung): 62.8 µM; GI50 (HOP-92 NSCLC): 8.83 µM; TGI (HOP-92 NSCLC): 47 µM; GI50 (SK-OV-3 ovarian): 10.1 µM; TGI (SK-OV-3 ovarian): 29.5 µM; GI50 (OVCAR-3 ovarian): 0.987 µM; TGI (OVCAR-3 ovarian): 10.8 µM; GI50 (PC-3 prostate): 6.53 µM; TGI (PC-3 prostate): 58.7 µM; GI50 (DU-145 prostate): 4.09 µM; TGI (DU-145 prostate): 33.4 µM; GI50 (RPMI-8226 leukemia): 2.29 µM; TGI (RPMI-8226 leukemia): > 54.2 µM; GI50 (TK-10 renal): 0.988 µM; TGI (TK-10 renal): 9.22 µM; GI50 (HCT-116 colon): 18.3 µM; TGI (HCT-116 colon): 44.6 µM; GI50 (KM12 colon): 1.5 µM; TGI (KM12 colon): 40.4 µM; TGI (OVCAR-5 ovarian): > 96.5 µM; GI50 (HOP-62 NSCLC): 8.52 µM; TGI (HOP-62 NSCLC): 33.7 µM; GI50 (UO-31 renal): 9.02 µM; TGI (UO-31 renal): 27.7 µM; GI50 (SK-MEL-2 melanoma): 3.5 µM; TGI (SK-MEL-2 melanoma): 23.7 µM; GI50 (CAKI-1 renal): 1.46 µM; TGI (CAKI-1 renal): 7.47 µM; GI50 (786-0 renal): 16.9 µM; TGI (786-0 renal): 38.5 µM; GI50 (A498 renal): 3.22 µM; TGI (A498 renal): 18.5 µM; GI50 (HT29 colon): 2.89 µM; TGI (HT29 colon): > 44.5 µM; GI50 (MALME-3M melanoma): 0.72 µM; TGI (MALME-3M melanoma): 5.91 µM

Question: Which TGI (ACHN renal) does the source give for `CC12CCC(C(Nc3cc(C(F)(F)F)cc(C(F)(F)F)c3)C1=O)C2(C)C` (stereo not drawn) here?
Answer: > 100 µM

Question: What about the TGI (UACC-62 melanoma) of the same compound?
Answer: > 100 µM

Question: What about the TGI (IGROV1 ovarian) of the same compound?
Answer: > 100 µM

Question: And the TGI (T-47D breast)?
Answer: > 100 µM

Question: What about the TGI (EKVX NSCLC) of the same compound?
Answer: > 100 µM

Question: What about the TGI (K-562 leukemia) of the same compound?
Answer: > 100 µM

Question: What about the TGI (SF-539 CNS) of the same compound?
Answer: > 100 µM

Question: What about the TGI (A549 NSCLC) of the same compound?
Answer: > 100 µM

Question: What about the TGI (MCF7 breast) of the same compound?
Answer: > 100 µM

Question: And the TGI (MDA-MB-435)?
Answer: > 100 µM

Question: And the TGI (M14 melanoma)?
Answer: > 100 µM

Question: What about the TGI (SF-268 CNS) of the same compound?
Answer: > 100 µM

Question: And the TGI (SF-295 CNS)?
Answer: > 100 µM

Question: What about the TGI (SK-MEL-5 melanoma) of the same compound?
Answer: > 100 µM

Question: What about the TGI (LOX IMVI melanoma) of the same compound?
Answer: > 100 µM

Question: And the TGI (SW-620 colon)?
Answer: > 100 µM

Question: And the TGI (HCC-2998 colon)?
Answer: > 100 µM

Question: And the TGI (SK-MEL-28 melanoma)?
Answer: > 100 µM

Question: And the TGI (OVCAR-4 ovarian)?
Answer: > 100 µM

Question: And the TGI (COLO 205 colon)?
Answer: > 100 µM

Question: What about the TGI (MOLT-4 leukemia) of the same compound?
Answer: > 100 µM

Question: What about the TGI (OVCAR-8 ovarian) of the same compound?
Answer: > 100 µM

Question: What about the TGI (UACC-257 melanoma) of the same compound?
Answer: > 100 µM

Question: And the TGI (BT-549 breast)?
Answer: > 100 µM

Question: And the TGI (NCI-H226 lung)?
Answer: > 100 µM

Question: What about the TGI (NCI-H460 lung) of the same compound?
Answer: > 100 µM

Question: What about the TGI (SNB-19 CNS) of the same compound?
Answer: > 100 µM

Question: What about the TGI (HCT-15 colon) of the same compound?
Answer: > 100 µM

Question: And the TGI (MDA-MB-231 breast)?
Answer: > 100 µM

Question: And the TGI (NCI/ADR-RES ovarian)?
Answer: > 100 µM

Question: What about the TGI (U251 CNS) of the same compound?
Answer: > 100 µM

Question: What about the TGI (NCI-H23 lung) of the same compound?
Answer: > 100 µM

Question: And the TGI (SK-OV-3 ovarian)?
Answer: > 100 µM

Question: And the TGI (OVCAR-3 ovarian)?
Answer: > 100 µM

Question: And the TGI (PC-3 prostate)?
Answer: > 100 µM

Question: And the TGI (DU-145 prostate)?
Answer: > 100 µM

Question: What about the TGI (RPMI-8226 leukemia) of the same compound?
Answer: > 100 µM

Question: And the TGI (SR leukemia)?
Answer: > 100 µM

Question: And the TGI (TK-10 renal)?
Answer: > 100 µM

Question: And the TGI (HCT-116 colon)?
Answer: > 100 µM

Question: What about the TGI (KM12 colon) of the same compound?
Answer: > 100 µM

Question: And the TGI (OVCAR-5 ovarian)?
Answer: > 100 µM

Question: And the TGI (HOP-62 NSCLC)?
Answer: > 100 µM

Question: And the TGI (UO-31 renal)?
Answer: > 100 µM

Question: What about the TGI (SK-MEL-2 melanoma) of the same compound?
Answer: > 100 µM

Question: What about the TGI (CAKI-1 renal) of the same compound?
Answer: > 100 µM

Question: What about the TGI (786-0 renal) of the same compound?
Answer: > 100 µM

Question: What about the TGI (A498 renal) of the same compound?
Answer: > 100 µM

Question: And the TGI (HT29 colon)?
Answer: > 100 µM

Question: What about the TGI (MALME-3M melanoma) of the same compound?
Answer: > 100 µM
